Experimental data taken from BigSolDB 2.1.

C=C1C[C@]23C[C@@]1(O)CC[C@H]2[C@@]12C=C[C@H](O)[C@@](C)(C(=O)O1)[C@H]2[C@@H]3C(=O)O
solubility (mole fraction)
Settings | 278.15 K | 283.15 K | 288.15 K | 293.15 K | 298.15 K | 303.15 K | 308.15 K | 313.15 K | 318.15 K | 323.15 K
in DMSO | 0.121 | 0.138 | 0.159 | 0.184 | 0.207 | 0.233 | 0.263 | 0.291 | 0.323 | 0.362
in THF | 0.149 | 0.173 | 0.199 | 0.227 | 0.252 | 0.279 | 0.31 | 0.341 | 0.371 | 0.401
in acetone | 0.103 | 0.12 | 0.137 | 0.158 | 0.181 | 0.205 | 0.23 | 0.258 | 0.289 | 0.32
in acetonitrile | 0.00864 | 0.0119 | 0.0155 | 0.0197 | 0.0243 | 0.0294 | 0.0352 | 0.0413 | 0.0481 | 0.0565
in chloroform | 0.0222 | 0.0302 | 0.0386 | 0.0479 | 0.0591 | 0.0715 | 0.085 | 0.0994 | 0.114 | 0.13
in ethanol | 0.181 | 0.205 | 0.231 | 0.257 | 0.284 | 0.312 | 0.344 | 0.374 | 0.404 | 0.438
in ethyl acetate | 0.0679 | 0.0807 | 0.0956 | 0.112 | 0.132 | 0.152 | 0.175 | 0.203 | 0.235 | 0.271
in isopropanol | 0.000502 | 0.000563 | 0.000625 | 0.000688 | 0.000752 | 0.000821 | 0.000888 | 0.00096 | 0.00103 | 0.00111
in n-butanol | 0.0021 | 0.00318 | 0.00427 | 0.00554 | 0.00704 | 0.00876 | 0.0107 | 0.0129 | 0.0151 | 0.0173
in n-heptane | 8.4e-05 | 0.000116 | 0.000152 | 0.000192 | 0.000236 | 0.000289 | 0.000349 | 0.000407 | 0.000471 | 0.000537
in n-hexane | 0.00017 | 0.000202 | 0.000239 | 0.000282 | 0.00033 | 0.000386 | 0.000444 | 0.000511 | 0.000583 | 0.000666
